Where “and” joins values, the source holds several entries; their conditions need not be identical. Equal entries are not always repeated.
Legend:
AMPKα1(h) = AMPKα1(h) (Homo sapiens, UniProt Q13131); assay: Kinase selectivity panel (residual activity at 1 μM); assay type: biochemical; details: inhibitor at 1 μM; read-out: residual kinase activity in % of maximal activity
CaMKIIα(h) = CaMKIIα(h) (Homo sapiens, UniProt Q9UQM7); assay: as above; assay type: biochemical; details: inhibitor at 1 μM; read-out: residual kinase activity in % of maximal activity
CaMKIIα(h), sequence (Q9UQM7 whole entry): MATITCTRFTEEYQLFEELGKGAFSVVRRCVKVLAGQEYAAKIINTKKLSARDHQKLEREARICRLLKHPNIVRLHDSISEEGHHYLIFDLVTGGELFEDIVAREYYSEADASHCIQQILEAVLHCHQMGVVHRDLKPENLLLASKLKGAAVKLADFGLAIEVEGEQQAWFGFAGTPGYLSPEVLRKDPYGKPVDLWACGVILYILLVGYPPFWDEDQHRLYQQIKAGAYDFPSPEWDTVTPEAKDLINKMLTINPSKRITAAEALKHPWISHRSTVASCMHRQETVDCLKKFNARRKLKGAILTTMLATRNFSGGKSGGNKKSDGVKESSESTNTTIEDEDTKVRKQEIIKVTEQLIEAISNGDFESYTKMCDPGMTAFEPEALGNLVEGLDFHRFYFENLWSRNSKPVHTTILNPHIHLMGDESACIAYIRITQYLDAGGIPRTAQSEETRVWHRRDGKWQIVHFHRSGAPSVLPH

JAK2(h) = JAK2(h) (Homo sapiens, UniProt O60674); assay: as above; assay type: biochemical; details: inhibitor at 1 μM
JAK2(h), sequence (O60674 whole entry): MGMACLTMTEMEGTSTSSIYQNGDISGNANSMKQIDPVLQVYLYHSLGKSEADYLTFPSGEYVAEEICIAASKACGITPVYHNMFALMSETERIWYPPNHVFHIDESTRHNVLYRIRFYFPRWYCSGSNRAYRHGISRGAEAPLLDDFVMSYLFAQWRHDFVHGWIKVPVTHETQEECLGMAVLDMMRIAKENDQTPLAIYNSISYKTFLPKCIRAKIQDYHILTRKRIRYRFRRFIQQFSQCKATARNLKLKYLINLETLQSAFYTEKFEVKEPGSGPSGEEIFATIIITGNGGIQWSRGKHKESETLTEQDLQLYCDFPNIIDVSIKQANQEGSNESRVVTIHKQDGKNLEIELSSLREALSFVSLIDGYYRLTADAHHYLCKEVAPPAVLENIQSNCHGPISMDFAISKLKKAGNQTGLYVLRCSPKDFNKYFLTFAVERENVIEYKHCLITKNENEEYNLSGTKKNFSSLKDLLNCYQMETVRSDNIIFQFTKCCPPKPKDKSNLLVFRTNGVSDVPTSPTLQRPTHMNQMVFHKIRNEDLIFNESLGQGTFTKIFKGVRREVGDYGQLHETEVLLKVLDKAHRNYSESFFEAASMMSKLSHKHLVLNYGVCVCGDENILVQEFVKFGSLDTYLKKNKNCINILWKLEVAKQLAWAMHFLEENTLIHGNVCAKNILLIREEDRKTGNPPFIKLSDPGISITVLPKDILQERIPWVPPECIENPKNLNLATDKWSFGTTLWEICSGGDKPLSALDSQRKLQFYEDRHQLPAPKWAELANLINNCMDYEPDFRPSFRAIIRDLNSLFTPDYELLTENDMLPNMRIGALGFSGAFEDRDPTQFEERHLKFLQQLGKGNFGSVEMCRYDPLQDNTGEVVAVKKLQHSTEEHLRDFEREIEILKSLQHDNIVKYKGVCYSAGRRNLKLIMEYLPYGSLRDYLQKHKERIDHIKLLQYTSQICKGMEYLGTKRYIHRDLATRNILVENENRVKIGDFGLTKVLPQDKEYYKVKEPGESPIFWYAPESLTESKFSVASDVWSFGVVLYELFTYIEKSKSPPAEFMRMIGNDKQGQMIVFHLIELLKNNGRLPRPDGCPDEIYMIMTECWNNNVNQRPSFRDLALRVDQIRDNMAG

MEK1(h) = MEK1(h) (Homo sapiens, UniProt Q02750); assay: as above; assay type: biochemical; details: inhibitor at 1 μM; read-out: residual kinase activity in % of maximal activity
MEK1(h), sequence (Q02750 whole entry): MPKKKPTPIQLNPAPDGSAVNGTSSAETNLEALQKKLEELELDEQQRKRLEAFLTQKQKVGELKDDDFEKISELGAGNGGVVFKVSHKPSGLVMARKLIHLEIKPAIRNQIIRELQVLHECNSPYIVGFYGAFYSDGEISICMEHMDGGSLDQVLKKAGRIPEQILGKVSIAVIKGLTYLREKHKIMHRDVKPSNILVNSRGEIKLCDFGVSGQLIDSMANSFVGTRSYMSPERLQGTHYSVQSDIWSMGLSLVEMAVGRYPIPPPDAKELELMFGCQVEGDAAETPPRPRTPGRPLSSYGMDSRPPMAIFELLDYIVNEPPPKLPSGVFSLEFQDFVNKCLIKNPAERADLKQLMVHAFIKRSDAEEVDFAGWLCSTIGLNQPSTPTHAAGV

p70S6K(h) = p70S6K(h) (Homo sapiens, UniProt P23443); assay: as above; assay type: biochemical; details: inhibitor at 1 μM; read-out: residual kinase activity in % of maximal activity
p70S6K(h), sequence (P23443 whole entry): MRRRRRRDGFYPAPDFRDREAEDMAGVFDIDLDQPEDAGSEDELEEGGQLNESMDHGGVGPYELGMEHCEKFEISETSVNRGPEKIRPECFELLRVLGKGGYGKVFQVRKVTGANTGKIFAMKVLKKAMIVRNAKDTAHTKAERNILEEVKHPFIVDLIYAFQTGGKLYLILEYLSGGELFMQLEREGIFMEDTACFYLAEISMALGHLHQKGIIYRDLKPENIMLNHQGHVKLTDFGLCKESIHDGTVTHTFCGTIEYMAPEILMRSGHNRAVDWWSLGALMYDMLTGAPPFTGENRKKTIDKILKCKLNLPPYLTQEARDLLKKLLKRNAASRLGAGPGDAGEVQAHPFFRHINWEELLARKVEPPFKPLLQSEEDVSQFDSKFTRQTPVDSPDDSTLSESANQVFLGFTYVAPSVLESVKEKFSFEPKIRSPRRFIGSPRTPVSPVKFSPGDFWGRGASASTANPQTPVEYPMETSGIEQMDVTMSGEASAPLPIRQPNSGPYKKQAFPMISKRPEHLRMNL

Pim-1(h) = Pim-1(h) (Homo sapiens, UniProt P11309); assay: as above; assay type: biochemical; details: inhibitor at 1 μM; read-out: residual kinase activity in % of maximal activity
Pim-1(h), sequence (P11309 whole entry): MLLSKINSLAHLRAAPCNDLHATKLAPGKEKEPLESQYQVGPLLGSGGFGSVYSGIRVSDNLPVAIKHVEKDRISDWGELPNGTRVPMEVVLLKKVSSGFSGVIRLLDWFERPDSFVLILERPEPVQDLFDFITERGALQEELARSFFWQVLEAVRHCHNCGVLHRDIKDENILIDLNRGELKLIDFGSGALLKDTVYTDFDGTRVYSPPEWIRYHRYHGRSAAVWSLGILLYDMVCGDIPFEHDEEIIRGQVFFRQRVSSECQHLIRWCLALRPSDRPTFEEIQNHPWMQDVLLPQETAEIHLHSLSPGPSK

Pim-3(h) = Pim-3(h) (Homo sapiens, UniProt Q86V86); assay: as above; assay type: biochemical; details: inhibitor at 1 μM; read-out: residual kinase activity in % of maximal activity
purified CaMKIIα = purified CaMKIIα (Rattus norvegicus, UniProt P11275); assay: In vitro kinase reaction: CaMKIIα autophosphorylation of T286; assay type: biochemical; details: 30 °C, 1 mM ATP, Ki from IC50 with Km ATP 33.3 μM, read-out: apparent inhibitor constant (Ki), pT286
Procedure: Data are presented as mean values ± s.e.m. a, Schematic of the AS283 inhibitor mechanism of action: ATP-competitive inhibition blocks enzymatic activity while mimicking the nucleotide binding requirement to allow interaction with GluN2B. b, Representative immunoblot and quantification of in vitro kinase reactions at 30 °C in 1 mM ATP measuring purified CaMKIIα phosphorylation of GST–GluA1 S831 with varying concentrations of AS283 (0.41–10 μM; n = 4 independent concentration curves). For a negative control (Neg.), ATP was omitted. […] ADP:AS283 P = 0.0697; ADP:tatCN21 P < 0.0001. ***P < 0.001. d, Confocal microscopy images of HEK293 cells co-expressing GFP–CaMKII and mCherry-2BC. […] CaMKII synaptic enrichment was measured before and after cLTP (n = 14,9 cells; RM two-way ANOVA with Šídák’s multiple comparisons test). […]
CaMKII-mediated phosphorylation of GluA1 S831 or GluN2B S1303 was measured by in vitro kinase reaction with a purified GST–GluA1 C-terminal tail or GST-GluN2B C-terminal tail. […] GST, phospho-S831, CaMKII, phospho-T286 or phospho-S1303 were detected in the samples by immunoblot analysis.
The inhibition constant Ki was calculated using the Cheng–Prusoff equation for competitive inhibition: Ki = IC50/(1 + [ATP]/Km).

[1] = biological target: purified CaMKIIα binding to GST–GluN2B-c WT (Homo sapiens, UniProt Q9UQM7); assay: CaMKII binding to immobilized GST–GluN2B-c in vitro; details: for bound CaMKIIα (immunoblot, relative): Ca2+/CaM
Procedure: CaMKII–GluN2B binding assays were done as described[9],[13],[25]. Briefly, GST–GluN2B-c tail (GST–2BC) was immobilized on anti-GST antibody-coated microtiter plates (Thermo Scientific), blocked for 30 min with 5% BSA and then overlaid with […] CaMKII (subunit concentration) in PIPES-buffered saline (pH 7.2) containing 2 mM Ca^2+, 1 μM CaM, 1 mM Mg^2+, 0.1% BSA and 0.1% Tween-20 for 20 min at room temperature. […] After extensive washes in buffer containing 1 mM EGTA, GST–2BC and bound CaMKII were eluted for 10 min in SDS loading buffer at 95 °C. Bound CaMKII was measured via immunoblot.

[2] = system: GFP–paCaMKII T286A in hippocampal neurons; assay: paCaMKII T286A photoactivation: synaptic enrichment in hippocampal neurons; assay type: cell-based
Procedure: Neurons were wrapped in aluminium foil immediately following transfection and only exposed to red light in imaging. One image was then taken of each neuron to serve as a pre-photoactivation baseline. Immediately following this baseline image, paCaMKII was globally photoactivated with a 405 nm laser pulse (100 ms exposure, 75% laser power) once every 10 s for a total of 60 s. Neurons were then imaged 15 min after stimulation and assessed for CaMKII synaptic enrichment and dendritic spine growth.
Neuronal cultures were transfected on DIV 15–18 and imaged 24–48 h later. […] Two-dimensional maximum-intensity projection images were then generated and analysed using a custom-build programme in ImageJ. The programme utilizes combinatorial thresholding to mask regions of the cell that contain high-intensity puncta of postsynaptic density protein 95 (PSD95; a marker of the post-synaptic side of excitatory synapses in dendritic spines) and regions of the dendritic shaft that contain no fluorescence intensity of PSD95. As a measure of synaptic enrichment, the ratio of mean CaMKII fluorescence intensity of the PSD95 mask to the mean CaMKII fluorescence intensity in the dendritic shaft mask is measured. Spine growth was assessed by measuring the changes in mCherry cell fill fluorescence intensity within dendritic spine divided by the initial fluorescence intensity (F/F0).

AMPKα1(h), sequence (Q13131 whole entry): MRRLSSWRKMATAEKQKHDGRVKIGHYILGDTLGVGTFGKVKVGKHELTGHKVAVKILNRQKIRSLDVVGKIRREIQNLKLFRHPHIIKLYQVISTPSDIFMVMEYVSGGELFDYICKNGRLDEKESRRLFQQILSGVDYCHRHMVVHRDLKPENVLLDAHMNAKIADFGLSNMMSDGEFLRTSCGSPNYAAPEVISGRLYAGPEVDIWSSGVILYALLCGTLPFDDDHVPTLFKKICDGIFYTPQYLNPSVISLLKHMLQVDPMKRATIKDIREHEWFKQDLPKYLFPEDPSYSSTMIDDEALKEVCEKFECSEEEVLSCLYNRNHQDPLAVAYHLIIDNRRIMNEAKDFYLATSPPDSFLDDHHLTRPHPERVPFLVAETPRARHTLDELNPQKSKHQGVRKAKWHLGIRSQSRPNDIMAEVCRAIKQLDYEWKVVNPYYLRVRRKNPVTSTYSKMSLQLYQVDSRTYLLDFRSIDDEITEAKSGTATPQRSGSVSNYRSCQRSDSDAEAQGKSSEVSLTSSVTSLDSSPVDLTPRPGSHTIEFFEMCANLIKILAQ
AMPKα1(h), sequence (Q9Y478 whole entry partner): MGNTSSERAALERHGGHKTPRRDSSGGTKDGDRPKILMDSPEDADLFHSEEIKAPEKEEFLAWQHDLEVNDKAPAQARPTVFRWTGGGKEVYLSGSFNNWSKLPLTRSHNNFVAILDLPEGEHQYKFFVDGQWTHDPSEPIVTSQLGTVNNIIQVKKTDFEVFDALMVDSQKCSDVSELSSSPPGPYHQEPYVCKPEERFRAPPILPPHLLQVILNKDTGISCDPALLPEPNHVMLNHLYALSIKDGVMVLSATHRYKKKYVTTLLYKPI
AMPKα1(h), sequence (P54619 whole entry partner): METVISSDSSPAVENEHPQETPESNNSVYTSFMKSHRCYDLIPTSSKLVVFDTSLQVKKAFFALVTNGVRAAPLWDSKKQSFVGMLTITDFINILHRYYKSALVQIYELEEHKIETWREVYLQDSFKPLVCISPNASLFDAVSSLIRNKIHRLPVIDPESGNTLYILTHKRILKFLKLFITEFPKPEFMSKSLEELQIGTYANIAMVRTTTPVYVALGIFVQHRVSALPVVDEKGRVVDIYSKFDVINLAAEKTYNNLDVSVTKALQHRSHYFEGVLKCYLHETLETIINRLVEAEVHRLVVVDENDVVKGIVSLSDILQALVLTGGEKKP

With `NCCNc1cccc(-c2ccnc3[nH]c4ccccc4c23)c1` [AS283] as the compound, how does the remaining activity at 1 µM (AMPKα1(h)) read?
The remaining activity at 1 µM was 70%.

What about the remaining activity at 1 µM (CaMKIIα(h)) of the same compound?
The remaining activity at 1 µM was 3%.

What about the “residual kinase activity in % of maximal activity” value (JAK2(h)) of the same compound?
Its value is 121%.

And the remaining activity at 1 µM (MEK1(h))?
Its remaining activity at 1 µM is 85%.

And the remaining activity at 1 µM (p70S6K(h))?
Its remaining activity at 1 µM is 18%.

What about the remaining activity at 1 µM (Pim-1(h)) of the same compound?
Its remaining activity at 1 µM is 50%.

And the remaining activity at 1 µM (Pim-3(h))?
The remaining activity at 1 µM was 97%.

And the Ki (purified CaMKIIα)?
The Ki was 71 nM.

And the “effect on CaMKII binding to GluN2B in vitro” value ([1]; 10 μM AS283 in the presence of ADP)?
Its value is “did not inhibit”.

And the “Ca2+/CaM-induced CaMKII binding when ATP was substituted with AS283” value ([1]; AS283 versus ATP)?
Its value is “significantly enhanced”.

And the “bound CaMKIIα (immunoblot, relative)” value ([1]; 10 μM AS283, no nucleotide, GST–GluN2B-c WT)?
Its value is 7.5135 and 8.574 and 8.878 and 7.419.

And the “bound CaMKIIα (immunoblot, relative)” value ([1]; 1 mM ADP with 10 μM AS283)?
The value was 1.196 and 1.2737 and 1.086 and 1.094.

What about the “CaMKII movement after photoactivation of paCaMKII T286A” value ([2]; AS283 10 μM) of the same compound?
Its value is “robust CaMKII movement”.

And the “synaptic enrichment after photoactivation (sheet 6b)” value ([2]; paCaMKII T286A + AS283, individual neurons)?
The value was 1.441 and 1.27 and 1.593 and 1.399 and 1.769 and 1.014 and 1.25 and 1.28 and 1.281 and 1.778.
